Reference: patent US10654853B2, “Spiro-condensed pyrrolidine derivatives as deubiquitylating enzymes (DUB) inhibitors” (MISSION THERAPEUTICS LIMITED, priority 2016, dated 2020)
Like-named read-outs stand apart in the source and are kept apart here.

Molecular target: Cezanne 1 (Homo sapiens (Human), UniProt Q6GQQ9)
Test: Cezanne 1 biochemical IC50 assay (fluorescence polarisation, TAMRA labelled peptide linked to ubiquitin)
How it was run: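 FLAG-tagged Cezanne 1, expressed in HEK293T and FLAG-purified, was preincubated with compound for 30 min at room temperature in Tris pH 7.5 buffer with Tween 20, BSA and β-mercaptoethanol. Reactions were started with 50 nM TAMRA-peptide isopeptide-linked to ubiquitin. Fluorescence polarisation (ex 540/em 590 nm) was read immediately and after 2 h.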

[1] = Cezanne 1 biochemical IC50 assay, 30 min pre-incubation, read after 2 hr at room temperature, read-out: IC50 range

Chain of Cezanne 1 (Q6GQQ9 whole entry): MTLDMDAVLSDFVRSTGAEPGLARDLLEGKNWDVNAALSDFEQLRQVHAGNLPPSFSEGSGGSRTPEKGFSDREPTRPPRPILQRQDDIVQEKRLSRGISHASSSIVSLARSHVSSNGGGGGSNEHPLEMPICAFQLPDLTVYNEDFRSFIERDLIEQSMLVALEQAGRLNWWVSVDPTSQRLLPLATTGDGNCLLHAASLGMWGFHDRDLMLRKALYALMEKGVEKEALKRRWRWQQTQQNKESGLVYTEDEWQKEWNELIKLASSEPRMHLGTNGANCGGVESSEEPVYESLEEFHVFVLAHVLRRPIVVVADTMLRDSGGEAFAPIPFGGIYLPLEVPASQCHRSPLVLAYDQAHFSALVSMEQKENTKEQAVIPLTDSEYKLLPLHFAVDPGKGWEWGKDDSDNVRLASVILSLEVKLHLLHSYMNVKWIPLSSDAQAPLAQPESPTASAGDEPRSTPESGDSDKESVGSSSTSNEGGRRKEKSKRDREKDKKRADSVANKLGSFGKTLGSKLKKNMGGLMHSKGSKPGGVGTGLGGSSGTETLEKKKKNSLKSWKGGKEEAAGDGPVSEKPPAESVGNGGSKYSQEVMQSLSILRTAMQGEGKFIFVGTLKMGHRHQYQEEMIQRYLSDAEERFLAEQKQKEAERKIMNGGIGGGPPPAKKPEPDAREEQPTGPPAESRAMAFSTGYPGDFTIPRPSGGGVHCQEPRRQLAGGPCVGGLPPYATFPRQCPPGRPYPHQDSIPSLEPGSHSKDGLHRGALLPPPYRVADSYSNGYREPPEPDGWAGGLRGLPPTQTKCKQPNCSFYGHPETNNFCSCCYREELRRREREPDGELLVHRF

Row | SMILES | IC50 [1] | IC50
1 | Cc1cc(-c2ccc3c(c2)CC2(CCN(C#N)C2)C(=O)N3)ccn1 (stereo not drawn) [Example 131, 6′-(2-Methylpyridin-4-yl)-2′-oxo-1′,4′-dihydro-2′H-spiro[pyrrolidine-3,3′-quinoline]-1-carbonitrile] | 100 to 1000 nM | 
2 | N#CN1CCC2(Cc3ccc(-c4ccccc4)cc3NC2=O)C1 (stereo not drawn) [Example 4, 2′-Oxo-7′-phenyl-1′,4′-dihydro-2′H-spiro[pyrrolidine-3,3′-quinoline]-1-carbonitrile] | 1000 to 10000 nM | 
3 | CN(C)C(=O)c1ccc(-c2ccc3c(c2)NC(=O)C2(CCN(C#N)C2)C3)cc1 (stereo not drawn) [Example 89, 4-(1-Cyano-2′-oxo-1′,4′-dihydro-2′H-spiro[pyrrolidine-3,3′-quinolin]-7′-yl)-N,N-dimethylbenzamide] | 1000 to 10000 nM | 
4 | CC(=O)Nc1ccc(-c2ccc3c(c2)NC(=O)C2(CCN(C#N)C2)C3)cc1 (stereo not drawn) [Example 31, N-(4-(1-Cyano-2′-oxo-1′,4′-dihydro-2′H-spiro[pyrrolidine-3,3′-quinolin]-7′-yl)phenyl)acetamide] | 1000 to 10000 nM | 
5 | N#CN1CCC2(C1)Oc1nc(-c3cccc4[nH]ncc34)ccc1NC2=O (stereo not drawn) [Example 139, 6-(1H-Indazol-4-yl)-2-oxo-1,2-dihydrospiro[pyrido[2,3-b][1,4]oxazine-3,3′-pyrrolidine]-1′-carbonitrile] | 100 to 1000 nM | 
6 | N#CN1CCC2(Cc3ccc(-c4ccc(-c5ccccc5)cc4)cc3NC2=O)C1 (stereo not drawn) [Example 6, 7′-([1,1′-Biphenyl]-4-yl)-2′-oxo-1′,4′-dihydro-2′H-spiro[pyrrolidine-3,3′-quinoline]-1-carbonitrile] |  | 1000 to 10000 nM
7 | CN1CCN(c2ccc(-c3ccc4c(c3)NC(=O)C3(CCN(C#N)C3)C4)cc2)CC1 (stereo not drawn) [Example 19, 7′-(4-(4-Methylpiperazin-1-yl)phenyl)-2′-oxo-1′,4′-dihydro-2′H-spiro[pyrrolidine-3,3′-quinoline]-1-carbonitrile] | 100 to 1000 nM | 
8 | Cn1ncc2cc(-c3ccc4c(c3)NC(=O)C3(CCN(C#N)C3)C4)ccc21 (stereo not drawn) [Example 24, 7′-(1-Methyl-1H-indazol-5-yl)-2′-oxo-1′,4′-dihydro-2′H-spiro[pyrrolidine-3,3′-quinoline]-1-carbonitrile] | < 100 nM | 
9 | N#Cc1cccc(-c2cnc3c(c2)NC(=O)[C@@]2(CCN(C#N)C2)N3)c1 [Example 75, (S)-7-(3-Cyanophenyl)-2-oxo-1,4-dihydro-2H-spiro[pyrido[2,3-b]pyrazine-3,3′-pyrrolidine]-1′-carbonitrile] | 100 to 1000 nM | 
10 | N#CN1CCC2(Cc3cc(-c4cccc(N5CCCCC5)c4)ccc3NC2=O)C1 (stereo not drawn) [Example 118, 2′-Oxo-6′-(3-(piperidin-1-yl)phenyl)-1′,4′-dihydro-2′H-spiro[pyrrolidine-3,3′-quinoline]-1-carbonitrile] | 100 to 1000 nM | 
11 | N#CN1CCC2(Cc3cc(-c4cc(OC(F)(F)F)ccc4Cl)ccc3NC2=O)C1 (stereo not drawn) [Example 125, 6′-(2-Chloro-5-(trifluoromethoxy)phenyl)-2′-oxo-1′,4′-dihydro-2′H-spiro[pyrrolidine-3,3′-quinoline]-1-carbonitrile] | 100 to 1000 nM | 
12 | CC(C)Oc1ccc(F)cc1-c1ccc2c(c1)NC(=O)C1(CCN(C#N)C1)C2 (stereo not drawn) [Example 21, 7′-(5-Fluoro-2-isopropoxyphenyl)-2′-oxo-1′,4′-dihydro-2′H-spiro[pyrrolidine-3,3′-quinoline]-1-carbonitrile] | 100 to 1000 nM | 
13 | CC(=O)Nc1ccccc1-c1ccc2c(c1)CC1(CCN(C#N)C1)C(=O)N2 (stereo not drawn) [Example 119, N-(2-(1-Cyano-2′-oxo-1′,4′-dihydro-2′H-spiro[pyrrolidine-3,3′-quinolin]-6′-yl)phenyl)acetamide] | 100 to 1000 nM | 
14 | N#CN1CCC2(Cc3ccc(-c4cccc5[nH]ncc45)cc3NC2=O)C1 (stereo not drawn) [Example 133, 7′-(1H-Indazol-4-yl)-2′-oxo-1′,4′-dihydro-2′H-spiro[pyrrolidine-3,3′-quinoline]-1-carbonitrile] | 100 to 1000 nM | 
15 | C[C@H]1NC(=O)C2(CCN(C#N)C2)NC1=O (stereo partly drawn) [Example 76, (8R)-8-Methyl-7,10-dioxo-2,6,9-triazaspiro[4.5]decane-2-carbonitrile] | 1000 to 10000 nM | 
16 | COc1ccc(-c2ccc3c(c2)CC2(CCN(C#N)C2)C(=O)N3)cn1 (stereo not drawn) [Example 103, 6′-(6-Methoxypyridin-3-yl)-2′-oxo-1′,4′-dihydro-2′H-spiro[pyrrolidine-3,3′-quinoline]-1-carbonitrile] | 100 to 1000 nM | 
17 | CN1CCN(C(=O)c2ccc(-c3ccc4c(c3)NC(=O)C3(CCN(C#N)C3)C4)cc2)CC1 (stereo not drawn) [Example 23, 7′-(4-(4-Methylpiperazine-1-carbonyl)phenyl)-2′-oxo-1′,4′-dihydro-2′H-spiro[pyrrolidine-3,3′-quinoline]-1-carbonitrile] | 100 to 1000 nM | 
18 | CC(=O)Nc1ccccc1-c1ccc2c(c1)NC(=O)C1(CCN(C#N)C1)C2 (stereo not drawn) [Example 36, N-(2-(1-Cyano-2′-oxo-1′,4′-dihydro-2′H-spiro[pyrrolidine-3,3′-quinolin]-7′-yl)phenyl)acetamide] | 100 to 1000 nM | 
